Laboratory results as given in US20240383856A1 (Zedira GmbH, priority 2021, published 2024).
Like-named read-outs stand apart in the source and are kept apart here.

Key:
[1] = logD by shake flask method (octanol / PBS pH 7.4, HPLC); format: physicochemical; conditions: octanol / PBS pH 7.4, shake flask
Procedure, shortened: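 LogD obtained by HPLC measurement of how the compound distributes between PBS (pH 7.4) and octanol in a shake-flask experiment.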

[2] = Caco-2 permeability assay (CacoReady kit); format: in vitro ADME; conditions: human
Procedure, shortened: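 Caco-2 monolayer barrier, commercial ready-to-use kit, manufacturer protocol. Read-out: Papp.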

[3] = Single-dose oral pharmacokinetic profile in mice; format: in vivo; conditions: male C57BL/6 mice, single oral dose 200 mg/kg
Description: Presumed from promising Papp values (permeability coefficients, see below), the 5 inventors had proven the oral bioavailability of the inhibitors of the present application by the representative compounds II-3, II-15, and II-28. For this selected set of representative compounds, pharmacokinetic profiles were determined in male C57BL/6 mice (N=3, each). Briefly, the compounds were administered as single-dose soluble, oral formulation [20 mg/ml in PBS/(2—Hydroxypropyl)-β-cyclodextrin formulation] at 200 mg/kg. Plasma samples were taken at (0, 0.25, 0.5, 1, 2, 4, and 6 hours) and analyzed by LC-MS to determine the concentration of the representative compounds.

logD [1]: 1 to 3 | Papp ([2]; Caco-2, Caco-2, read-out: Papp [cm/s] ×10^−6): 8.4 ×10⁻⁶ cm/s | Papp ([2]; Caco-2, Caco-2 barrier, CacoReady kit, above 1×10^−6 cm/s classified as permeable): 1 to 10 ×10⁻⁶ cm/s | Kel [3]: 1.0 h⁻¹ | CL/F ([3]; mouse, plasma): 277 mL/min/kg | MRT ([3]; mouse, plasma): 60 min | half-life ([3]; mouse, plasma): 42 min | AUC(0-t) ([3]; mouse, plasma): 12000 ng·h/mL | Cmax ([3]; mouse, plasma, read-out: Cmax): 21.6 µM | Cmax ([3]; mouse, plasma, read-out: Cmax [ng/ml]): 13600 ng/mL
Structure (SMILES): CNC(=O)C(=O)CC[C@H](NC(=O)c1oc2ccccc2c1C)C(=O)Nc1cccn(CC(=O)NC2C3CC4CC(C3)CC2C4)c1=O (stereo partly drawn) [II-3, (S)-N1-(1-(2-(2-adamantylamino)-2-oxoethyl)-2-oxo-1,2-dihydropyridin-3-yl)-N6-methyl-2-(3-methylbenzofuran-2-carboxamido)-5-oxohexanediamide]
